Data as given in the supplement of paper PMC10307832.

Legend:
Assay in all cases: relative viability (nuclei count vs DMSO), 5 days (fraction); higher = more cells survive
[1] = system: NCI-H2228
Outline: (§1)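 One day after seeding in 1536-well plates, lung cancer cell lines were dosed by pin tool. Dosing was either single-drug or a fixed anchor-drug dose plus five library-drug doses (not always all listed) in √10 steps. After 5 days, nuclei were stained in one fix-and-stain step and counted on 4× images, and relative viability is the nuclei count of treated wells over that of vehicle wells, given as the median of duplicate plates.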

[2] = system: NCI-H2087
Outline: as §1

[3] = system: LC-2-ad
Outline: as §1

[4] = system: HCC-366
Outline: as §1

[5] = system: HCC-78
Outline: as §1

[6] = system: UMC-11
Outline: as §1

[7] = system: NCI-H1755
Outline: as §1

[8] = system: CAL-12T
Outline: as §1

[9] = system: NCI-H3122
Outline: as §1

[10] = system: PC-3 [JPC-3]
Outline: as §1

[11] = system: NCI-H1651
Outline: as §1

[12] = system: LOU-NH91
Outline: as §1

[13] = system: ChaGo-K-1
Outline: as §1

[14] = system: NCI-H460
Outline: as §1

[15] = system: ABC-1
Outline: as §1

[16] = system: NCI-H1793
Outline: as §1

[17] = system: LU99A
Outline: as §1

[18] = system: NCI-H2170
Outline: as §1

[19] = system: NCI-H1395
Outline: as §1

[20] = system: NCI-H2405
Outline: as §1

[21] = system: NCI-H1944
Outline: as §1

[22] = system: RERF-LC-KJ
Outline: as §1

`CC(=O)O[C@@]12CO[C@@H]1C[C@H](O)[C@@]1(C)C(=O)[C@H](O)C3=C(C)[C@@H](OC(=O)[C@H](O)[C@@H](NC(=O)OC(C)(C)C)c4ccccc4)C[C@@](O)([C@@H](OC(=O)c4ccccc4)[C@H]21)C3(C)C` [Docetaxel] + O=C(c1cc(Cc2n[nH]c(=O)c3ccccc23)ccc1F)N1CCN(C(=O)C2CC2)CC1 [Olaparib] (partner 8 µM) gave a relative viability ([1]; first compound 0.0002 µM) of 0.446, a relative viability ([1]; first compound 0.000632 µM) of 0.275 and a relative viability ([1]; first compound 0.002 µM) of 0.153. For the same compound, the relative viability ([1]; first compound 0.006325 µM) was 0.13, the relative viability ([1]; first compound 0.02 µM) was 0.0992 and the relative viability ([2]; first compound 0.0002 µM) was 0.586. It also gave a relative viability ([2]; first compound 0.000632 µM) of 0.3, a relative viability ([2]; first compound 0.002 µM) of 0.243 and a relative viability ([2]; first compound 0.006325 µM) of 0.125. It also gave a relative viability ([2]; first compound 0.02 µM) of 0.0944, a relative viability ([3]; first compound 0.0002 µM) of 0.623 and a relative viability ([3]; first compound 0.000632 µM) of 0.411. The relative viability ([3]; first compound 0.002 µM) was 0.304, the relative viability ([3]; first compound 0.02 µM) was 0.191 and the relative viability ([4]; first compound 0.0002 µM) was 0.245. It also gave a relative viability ([4]; first compound 0.000632 µM) of 0.115, a relative viability ([4]; first compound 0.002 µM) of 0.0486 and a relative viability ([4]; first compound 0.006325 µM) of 0.0381. It also gave a relative viability ([4]; first compound 0.02 µM) of 0.0133, a relative viability ([5]; first compound 0.0002 µM) of 0.859 and a relative viability ([5]; first compound 0.000632 µM) of 0.777. The relative viability ([5]; first compound 0.002 µM) was 0.41, the relative viability ([5]; first compound 0.006325 µM) was 0.329 and the relative viability ([5]; first compound 0.02 µM) was 0.338. The relative viability ([6]; first compound 0.0002 µM) was 0.371, the relative viability ([6]; first compound 0.000632 µM) was 0.352 and the relative viability ([6]; first compound 0.002 µM) was 0.221. It also gave a relative viability ([6]; first compound 0.006325 µM) of 0.289, a relative viability ([6]; first compound 0.02 µM) of 0.229 and a relative viability ([7]; first compound 0.0002 µM) of 0.87. The relative viability ([7]; first compound 0.000632 µM) was 0.729, the relative viability ([7]; first compound 0.002 µM) was 0.578 and the relative viability ([7]; first compound 0.006325 µM) was 0.417. It also gave a relative viability ([7]; first compound 0.02 µM) of 0.377, a relative viability ([8]; first compound 0.0002 µM) of 0.591 and a relative viability ([8]; first compound 0.000632 µM) of 0.392. For the same compound, the relative viability ([8]; first compound 0.002 µM) was 0.253, the relative viability ([8]; first compound 0.006325 µM) was 0.263 and the relative viability ([8]; first compound 0.02 µM) was 0.173. The relative viability ([9]; first compound 0.0002 µM) was 0.658, the relative viability ([9]; first compound 0.000632 µM) was 0.623 and the relative viability ([9]; first compound 0.002 µM) was 0.521. It also gave a relative viability ([9]; first compound 0.006325 µM) of 0.202, a relative viability ([9]; first compound 0.02 µM) of 0.129 and a relative viability ([10]; first compound 0.0002 µM) of 1.13. The relative viability ([10]; first compound 0.000632 µM) was 1.03, the relative viability ([10]; first compound 0.002 µM) was 0.585 and the relative viability ([10]; first compound 0.006325 µM) was 0.388. It also gave a relative viability ([10]; first compound 0.02 µM) of 0.234, a relative viability ([11]; first compound 0.0002 µM) of 0.188 and a relative viability ([11]; first compound 0.000632 µM) of 0.206. For the same compound, the relative viability ([11]; first compound 0.002 µM) was 0.177, the relative viability ([11]; first compound 0.006325 µM) was 0.137 and the relative viability ([12]; first compound 0.0002 µM) was 0.915. For the same compound, the relative viability ([12]; first compound 0.000632 µM) was 0.839, the relative viability ([12]; first compound 0.002 µM) was 0.567 and the relative viability ([12]; first compound 0.006325 µM) was 0.396. The relative viability ([12]; first compound 0.02 µM) was 0.315, the relative viability ([13]; first compound 0.0002 µM) was 0.384 and the relative viability ([13]; first compound 0.000632 µM) was 0.335. For the same compound, the relative viability ([13]; first compound 0.002 µM) was 0.285, the relative viability ([13]; first compound 0.006325 µM) was 0.3 and the relative viability ([13]; first compound 0.02 µM) was 0.181. The relative viability ([14]; first compound 0.0002 µM) was 0.373, the relative viability ([14]; first compound 0.000632 µM) was 0.31 and the relative viability ([14]; first compound 0.002 µM) was 0.0608. For the same compound, the relative viability ([14]; first compound 0.006325 µM) was 0.0428, the relative viability ([14]; first compound 0.02 µM) was 0.0276 and the relative viability ([15]; first compound 0.0002 µM) was 0.649. It also gave a relative viability ([15]; first compound 0.000632 µM) of 0.827, a relative viability ([15]; first compound 0.002 µM) of 0.564 and a relative viability ([15]; first compound 0.006325 µM) of 0.535. For the same compound, the relative viability ([15]; first compound 0.02 µM) was 0.338, the relative viability ([16]; first compound 0.0002 µM) was 0.8 and the relative viability ([16]; first compound 0.000632 µM) was 0.517. It also gave a relative viability ([16]; first compound 0.002 µM) of 0.287, a relative viability ([16]; first compound 0.006325 µM) of 0.293 and a relative viability ([17]; first compound 0.0002 µM) of 0.259. For the same compound, the relative viability ([17]; first compound 0.000632 µM) was 0.201, the relative viability ([17]; first compound 0.002 µM) was 0.209 and the relative viability ([17]; first compound 0.006325 µM) was 0.23. For the same compound, the relative viability ([17]; first compound 0.02 µM) was 0.163, the relative viability ([18]; first compound 0.0002 µM) was 0.611 and the relative viability ([18]; first compound 0.000632 µM) was 0.475. It also gave a relative viability ([18]; first compound 0.002 µM) of 0.342, a relative viability ([18]; first compound 0.006325 µM) of 0.136 and a relative viability ([18]; first compound 0.02 µM) of 0.126. For the same compound, the relative viability ([19]; first compound 0.0002 µM) was 0.502, the relative viability ([19]; first compound 0.000632 µM) was 0.469 and the relative viability ([19]; first compound 0.002 µM) was 0.481. It also gave a relative viability ([19]; first compound 0.006325 µM) of 0.341, a relative viability ([19]; first compound 0.02 µM) of 0.339 and a relative viability ([20]; first compound 0.0002 µM) of 0.875. For the same compound, the relative viability ([20]; first compound 0.000632 µM) was 0.712, the relative viability ([20]; first compound 0.002 µM) was 0.557 and the relative viability ([20]; first compound 0.006325 µM) was 0.419. The relative viability ([20]; first compound 0.02 µM) was 0.329, the relative viability ([21]; first compound 0.0002 µM) was 0.439 and the relative viability ([21]; first compound 0.000632 µM) was 0.396. It also gave a relative viability ([21]; first compound 0.002 µM) of 0.339, a relative viability ([21]; first compound 0.006325 µM) of 0.238 and a relative viability ([21]; first compound 0.02 µM) of 0.118. It also gave a relative viability ([22]; first compound 0.0002 µM) of 0.793, a relative viability ([22]; first compound 0.000632 µM) of 0.608 and a relative viability ([22]; first compound 0.002 µM) of 0.281. It also gave a relative viability ([22]; first compound 0.02 µM) of 0.172.
